Source: patent US11345700B2, “Methods of preparing inhibitors of influenza viruses replication” (priority 2013, dated 2022)
Read-outs that look alike come from different tables or passages of the source.

Experiments:
[1] = test system: Influenza A/California/04/2009 (pndH1N1) virus; assay type: in vivo, BALB/c mice
[2] = test system: Influenza A/Victoria/3/75 (H3N2) virus; assay type: in vivo, BALB/c mice
[3] = test system: Influenza A/Vietnam/1203/2004 (H5N1) virus; assay type: in vivo, BALB/c mice; details: 10 mg/kg p.o. twice a day for 10 days; Treatment (+48 h)
influenza A strains = test: microbe, parasite or virus in culture; assay type: cell-based
influenza B virus = test: Antiviral activity in MDCK cells measured by ATP levels (CellTiter-Glo), influenza B; assay type: cell-based; details: read-out: Cell Protection Assay EC50 ± SD
influenza A virus = test: Mouse influenza A model: prophylactic dose response and delayed treatment, survival and body weight loss; assay type: in vivo, mice
From the text: The prophylactic dose response of Compound (1) was investigated in the mouse influenza A model. […] All of the mice that received vehicle alone succumbed to the infection by study day 9 and had lost, on average, ˜32% of their body weight (BW).
All vehicle controls succumbed to disease by study days 8 or 9.

[4] = 1 mg/kg p.o. twice a day for 10 days starting 2 hours prior to virus exposure
[5] = 3 mg/kg p.o. twice a day for 10 days starting 2 hours prior to virus exposure
[6] = 10 mg/kg p.o. twice a day for 10 days starting 2 hours prior to virus exposure
[7] = treatment start +24 h relative to infection, 1 mg/kg BID
[8] = treatment start +24 h relative to infection, 3 mg/kg BID
[9] = treatment start +24 h relative to infection, 10 mg/kg BID
[10] = treatment start +48 h relative to infection, 1 mg/kg BID
[11] = treatment start +48 h relative to infection, 3 mg/kg BID
[12] = treatment start +48 h relative to infection, 10 mg/kg BID
[13] = treatment start +72 h relative to infection, 1 mg/kg BID
[14] = treatment start +72 h relative to infection, 3 mg/kg BID
[15] = treatment start +72 h relative to infection, 10 mg/kg BID
[16] = treatment start +96 h relative to infection, 3 mg/kg BID
[17] = treatment start +96 h relative to infection, 10 mg/kg BID
[18] = treatment start +120 h relative to infection, 3 mg/kg BID
[19] = treatment start +120 h relative to infection, 10 mg/kg BID
[20] = treatment start −2 h relative to infection, 0.1 mg/kg BID

O=C(O)[C@H]1[C@H]2CC[C@H](CC2)[C@@H]1Nc1nc(-c2c[nH]c3ncc(F)cc23)ncc1F [Compound (1)]
Mean Lung Parameters (Day 6): Score (hemorrhage score 0-4) [1, 4]: 0.6
Mean Lung Parameters (Day 6): Virus Titer [1, 4]: 5.5 Log10 CCID50/g
Mean Lung Parameters (Day 6): Weight [1, 4]: 246 mg
Mean Lung Parameters (Day 6): Score (hemorrhage score 0-4) [1, 5]: 0.0
Mean Lung Parameters (Day 6): Virus Titer [1, 5]: 3.1 Log10 CCID50/g
Mean Lung Parameters (Day 6): Weight [1, 5]: 123 mg
Mean Lung Parameters (Day 6): Score (hemorrhage score 0-4) [1, 6]: 0.2
Mean Lung Parameters (Day 6): Virus Titer [1, 6]: <2.6^d*** Log10 CCID50/g
Mean Lung Parameters (Day 6): Weight [1, 6]: 132 mg
MDD ± SD (mean day of death of mice that died on or before day 21) [2, 4]: 9.8
Mean Lung Parameters (Day 6): Score (hemorrhage score 0-4) [2, 4]: 3.2
Mean Lung Parameters (Day 6): Virus Titer [2, 4]: 7.3 Log10 CCID50/g
Mean Lung Parameters (Day 6): Weight [2, 4]: 274 mg
Survivors/Total [2, 4]: 4/10
Mean Lung Parameters (Day 6): Score (hemorrhage score 0-4) [2, 5]: 3.3
Mean Lung Parameters (Day 6): Virus Titer [2, 5]: 7.2 Log10 CCID50/g
Mean Lung Parameters (Day 6): Weight [2, 5]: 260 mg
Mean Lung Parameters (Day 6): Score (hemorrhage score 0-4) [2, 6]: 0.1
Mean Lung Parameters (Day 6): Virus Titer [2, 6]: 6.1 Log10 CCID50/g
Mean Lung Parameters (Day 6): Weight [2, 6]: 164 mg
MDD ± SD (mean day of death of mice that died on or before day 21) [3]: >21
Mean Lung Parameters (Day 6): Virus Titer [3]: 3.75 ± 0.94 Log10 CCID50/g
Survivors/Total [3]: 10/10
EC50 (influenza A strains; ATCC 2 / H1N1, MDCK, read-out: Cell Protection Assay EC50 ± SD): 1.9 ± 3 nM
EC50 (influenza A strains; ATCC 3 / H1N1, MDCK, read-out: Cell Protection Assay EC50 ± SD): 1.9 ± 3.2 nM
EC50 (influenza A strains; H1N1, MDCK, in Sus scrofa, read-out: Cell Protection Assay EC50 ± SD, A/Swine/1976/31, H1N1): 0.47 ± 0.11 nM
EC50 (influenza A strains; H1N1, MDCK, in Sus scrofa, read-out: Cell Protection Assay EC50 ± SD, A/Swine/Iowa/15/30, H1N1): 0.65 ± 0.082 nM
EC50 (influenza A strains; H1N1, MDCK, read-out: Cell Protection Assay EC50 ± SD, A/New Jersey/8/76, H1N1): 0.2 ± 0.096 nM
EC50 (influenza A strains; H3N8, MDCK, in Equus caballus, read-out: Cell Protection Assay EC50 ± SD, A/Equine/2/Miami/63, H3N8): 0.5 ± 0.065 nM
EC50 (influenza B virus; B/Russia/69): > 10 nM
EC50 (influenza B virus; Influenza B virus, MDCK, B/Lee/40): > 10 nM
survival (mice) (influenza A virus; 0.3 mg/kg BID for 10 days, initiated 2 h prior to infection): 2/8
Percent Body Weight Loss on Study Day 8 (influenza A virus; [7]): −23.4%
Percent Survival (influenza A virus; [7]): 100%
Percent Body Weight Loss on Study Day 8 (influenza A virus; [8]): −14.2%
Percent Survival (influenza A virus; [8]): 100%
Percent Body Weight Loss on Study Day 8 (influenza A virus; [9]): −6.2%
Percent Survival (influenza A virus; [9]): 100%
Percent Body Weight Loss on Study Day 8 (influenza A virus; [10]): −22.5%
Percent Survival (influenza A virus; [10]): 100%
Percent Body Weight Loss on Study Day 8 (influenza A virus; [11]): −10.9%
Percent Survival (influenza A virus; [11]): 100%
Percent Body Weight Loss on Study Day 8 (influenza A virus; [12]): −7.1%
Percent Survival (influenza A virus; [12]): 100%
Percent Body Weight Loss on Study Day 8 (influenza A virus; [13]): −29.4%
Percent Survival (influenza A virus; [13]): 100%
Percent Body Weight Loss on Study Day 8 (influenza A virus; [14]): −23.2%
Percent Survival (influenza A virus; [14]): 100%
Percent Body Weight Loss on Study Day 8 (influenza A virus; [15]): −17.4%
Percent Survival (influenza A virus; [15]): 100%
Percent Body Weight Loss on Study Day 8 (influenza A virus; [16]): −27.3%
Percent Survival (influenza A virus; [16]): 100%
Percent Body Weight Loss on Study Day 8 (influenza A virus; [17]): −25.5%
Percent Survival (influenza A virus; [17]): 100%
Percent Body Weight Loss on Study Day 8 (influenza A virus; [18]): −32.6%
Percent Survival (influenza A virus; [18]): 12.5%
Percent Body Weight Loss on Study Day 8 (influenza A virus; [19]): −34.4%
Percent Survival (influenza A virus; [19]): 37.5%
Percent Body Weight Loss on Study Day 8 (influenza A virus; [20]): −31.9%
Percent Survival (influenza A virus; [20]): 0%
Percent Body Weight Loss on Study Day 8 (influenza A virus; treatment start −2 h relative to infection, 0.3 mg/kg BID): −30.4%
